This passage reports IC50 results from US10457654B2 (GENENTECH, INC., priority 2017, dated 2019).

Counter-ions that a name gives are not always drawn.

Sequence of hNav1.7 (Q15858 whole entry, looked up): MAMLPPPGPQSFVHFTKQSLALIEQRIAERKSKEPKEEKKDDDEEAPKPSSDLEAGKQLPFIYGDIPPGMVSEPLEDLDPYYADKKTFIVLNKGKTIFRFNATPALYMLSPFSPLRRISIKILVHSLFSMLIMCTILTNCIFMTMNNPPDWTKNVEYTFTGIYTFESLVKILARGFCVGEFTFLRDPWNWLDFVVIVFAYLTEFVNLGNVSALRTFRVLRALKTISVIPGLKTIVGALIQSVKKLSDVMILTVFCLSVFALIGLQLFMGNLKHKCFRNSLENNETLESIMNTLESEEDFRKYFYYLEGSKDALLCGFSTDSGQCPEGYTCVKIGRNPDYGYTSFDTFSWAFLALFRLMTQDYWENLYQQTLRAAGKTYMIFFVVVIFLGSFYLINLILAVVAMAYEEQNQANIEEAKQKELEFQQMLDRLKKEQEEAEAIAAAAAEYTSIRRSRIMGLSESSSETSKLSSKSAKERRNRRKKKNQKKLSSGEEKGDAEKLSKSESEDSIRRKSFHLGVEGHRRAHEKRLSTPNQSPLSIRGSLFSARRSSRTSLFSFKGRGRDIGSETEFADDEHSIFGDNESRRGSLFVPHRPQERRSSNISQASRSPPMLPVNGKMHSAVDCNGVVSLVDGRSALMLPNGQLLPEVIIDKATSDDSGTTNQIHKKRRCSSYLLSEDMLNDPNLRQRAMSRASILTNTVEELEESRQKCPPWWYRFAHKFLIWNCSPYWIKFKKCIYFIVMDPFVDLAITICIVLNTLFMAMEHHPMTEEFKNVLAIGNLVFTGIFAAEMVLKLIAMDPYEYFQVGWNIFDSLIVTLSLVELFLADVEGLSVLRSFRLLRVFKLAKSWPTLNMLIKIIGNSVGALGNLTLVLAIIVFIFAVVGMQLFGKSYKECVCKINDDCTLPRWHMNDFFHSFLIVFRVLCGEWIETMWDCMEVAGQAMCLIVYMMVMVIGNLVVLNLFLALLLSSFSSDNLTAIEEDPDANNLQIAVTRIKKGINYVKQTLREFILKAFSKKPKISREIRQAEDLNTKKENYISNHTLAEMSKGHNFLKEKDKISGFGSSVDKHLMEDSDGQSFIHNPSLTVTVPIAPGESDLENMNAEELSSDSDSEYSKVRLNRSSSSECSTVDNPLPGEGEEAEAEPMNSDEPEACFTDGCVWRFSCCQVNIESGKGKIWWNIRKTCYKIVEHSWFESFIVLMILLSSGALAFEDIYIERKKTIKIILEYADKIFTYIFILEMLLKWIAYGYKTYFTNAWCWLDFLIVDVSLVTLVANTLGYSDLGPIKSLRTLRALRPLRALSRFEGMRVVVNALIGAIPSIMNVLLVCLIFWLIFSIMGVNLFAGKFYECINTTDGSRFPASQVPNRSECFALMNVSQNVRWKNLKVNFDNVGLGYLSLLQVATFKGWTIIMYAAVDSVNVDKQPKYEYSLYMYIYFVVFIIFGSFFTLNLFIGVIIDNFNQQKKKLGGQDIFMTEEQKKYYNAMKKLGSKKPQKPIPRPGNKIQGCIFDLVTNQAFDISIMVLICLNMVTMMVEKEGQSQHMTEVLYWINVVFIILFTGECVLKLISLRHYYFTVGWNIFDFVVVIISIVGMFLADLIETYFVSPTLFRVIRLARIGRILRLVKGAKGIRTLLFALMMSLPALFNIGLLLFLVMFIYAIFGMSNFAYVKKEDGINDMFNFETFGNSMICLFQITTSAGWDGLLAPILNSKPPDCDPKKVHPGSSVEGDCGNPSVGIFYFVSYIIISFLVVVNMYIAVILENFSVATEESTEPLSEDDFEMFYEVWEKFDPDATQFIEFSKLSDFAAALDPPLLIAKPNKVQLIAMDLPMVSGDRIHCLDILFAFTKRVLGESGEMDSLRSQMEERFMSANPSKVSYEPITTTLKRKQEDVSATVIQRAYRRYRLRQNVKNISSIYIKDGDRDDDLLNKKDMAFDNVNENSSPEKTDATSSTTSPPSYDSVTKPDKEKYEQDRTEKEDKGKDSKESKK
Sequence of hNav1.7 (Q07699 whole entry partner, looked up): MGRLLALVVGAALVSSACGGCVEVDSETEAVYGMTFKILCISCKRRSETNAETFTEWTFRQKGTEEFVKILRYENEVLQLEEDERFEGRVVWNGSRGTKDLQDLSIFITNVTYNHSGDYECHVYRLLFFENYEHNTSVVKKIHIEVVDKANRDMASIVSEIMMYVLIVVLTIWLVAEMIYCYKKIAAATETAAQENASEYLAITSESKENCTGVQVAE

The first test addresses hNav1.7 (Homo sapiens (Human), UniProt Q15858). In words: Tritiated compound binding to membranes from cells expressing hNav1.7 and the β1 subunit, competitive binding (LBA, Ex. 243A). The settings on record: 100 pM [3H]compound, 18 h, room temperature; read-out: Nav1.7 (LBA) (Ex. 243A).
Consider `CN(C)[C@H]1CCCC[C@@H]1Nc1cc(F)c(S(=O)(=O)Nc2ccncn2)cc1Cl` [Example 11, 5-chloro-4-(((1S,2S)-2-(dimethylamino)cyclohexyl)amino)-2-fluoro-N-(pyrimidin-4-yl)benzenesulfonamide], for which the IC50 is 126 nM.

`CN(C)[C@@H]1CCCC[C@H]1Oc1cc(F)c(S(=O)(=O)Nc2nccs2)cc1C1CC1` [Example 25, 5-cyclopropyl-4-[(1R,2R)-2-(dimethylamino)cyclohexoxy]-2-fluoro-N-thiazol-2-yl-benzenesulfonamide]: the IC50 came to 7420 nM.

In the case of `CN[C@H]1CCCC[C@@H]1Nc1cc(F)c(S(=O)(=O)Nc2nccs2)cc1Cl` [Example 3, 5-chloro-2-fluoro-4-(((1S,2S)-2-(methylamino)cyclohexyl)amino)-N-(thiazol-2-yl)benzenesulfonamide 2,2,2-trifluoroacetate], the IC50 is 16 nM.

For `CN(C)[C@@H]1CCCC[C@H]1Oc1cc(F)c(S(=O)(=O)Nc2nccs2)cc1Cl` [Example 8, 5-chloro-4-(((1R,2R)-2-(dimethylamino)cyclohexyl)oxy)-2-fluoro-N-(thiazol-2-yl)benzenesulfonamide], the IC50 was determined as 3000 nM.

Consider `CCN(C)[C@H]1CCCC[C@@H]1Nc1cc(F)c(S(=O)(=O)Nc2nccs2)cc1Cl` [Example 18, 5-chloro-4-[[(1S,2S)-2-[ethyl(methyl)amino]cyclohexyl]amino]-2-fluoro-N-thiazol-2-yl-benzenesulfonamide], for which the IC50 stood at 16.8 nM.

Turning to `CN(C)[C@H]1CCCC[C@@H]1Nc1cc(F)c(S(=O)(=O)Nc2ncns2)cc1F` [Example 13, 4-(((1S,2S)-2-(dimethylamino)cyclohexyl)amino)-2,5-difluoro-N-(1,2,4-thiadiazol-5-yl)benzenesulfonamide formate], the IC50 was 357 nM.

Turning to `CN(C)[C@H]1CCC[C@@H]1Oc1cc(F)c(S(=O)(=O)Nc2nccs2)cc1Cl` [Example 9, 5-chloro-4-(((1S,2S)-2-(dimethylamino)cyclopentyl)oxy)-2-fluoro-N-(thiazol-2-yl)benzenesulfonamide], the IC50 came out at 3000 nM.

In the case of `O=S(=O)(Nc1nccs1)c1cc(Cl)c(N[C@H]2CCCC[C@@H]2N2CCC2)cc1F` [Example 21, 4-(((1S,2S)-2-(azetidin-1-yl)cyclohexyl)amino)-5-chloro-2-fluoro-N-(thiazol-2-yl)benzenesulfonamide], the IC50 was determined as 214 nM.

The same test, now with this note: 100 pM [3H]compound, 18 h, room temperature; read-out: Nav1.7 LBA (Ex. 243A) IC50.
Turning to `CN(C)[C@@H]1CC[C@@H](c2cccc(C(F)(F)F)c2)C[C@H]1Nc1cc(F)c(S(=O)(=O)Nc2nccs2)cc1Cl` [Example 93, 5-chloro-4-(((1R,2R,5R)-2-(dimethylamino)-5-(3-(trifluoromethyl)phenyl)cyclohexyl)amino)-2-fluoro-N-(thiazol-2-yl)benzenesulfonamide], the IC50 turned out to be 64.7 nM.

As to `CN(CCO)[C@H]1CCCC[C@@H]1Nc1cc(F)c(S(=O)(=O)Nc2cccc(F)n2)cc1Cl` [Example 72, 5-chloro-2-fluoro-N-(6-fluoropyridin-2-yl)-4-(((1S,2S)-2-((2-hydroxyethyl)(methyl)amino)cyclohexyl)amino)benzenesulfonamide], the IC50 was 14.8 nM.

For `CCCN(C)[C@H]1CCCC[C@@H]1Nc1cc(F)c(S(=O)(=O)Nc2nccs2)cc1Cl` [Example 29, 5-chloro-2-fluoro-4-(((1S,2S)-2-(methyl(propyl)amino)cyclohexyl)amino)-N-(thiazol-2-yl)benzenesulfonamide], the IC50 worked out at 60.1 nM.

As for `CCN(C)[C@H]1CCCC[C@@H]1Nc1cc(F)c(S(=O)(=O)Nc2cccc(F)n2)cc1Cl` [Example 71, 5-chloro-4-(((1S,2S)-2-(ethyl(methyl)amino)cyclohexyl)amino)-2-fluoro-N-(6-fluoropyridin-2-yl)benzenesulfonamide], the IC50 is 41.3 nM.

Consider `CCCN[C@H]1CCCC[C@@H]1Nc1cc(F)c(S(=O)(=O)Nc2nccs2)cc1Cl` [Example 34, 5-chloro-2-fluoro-4-(((1 S,2S)-2-(propylamino)cyclohexyl)amino)-N-(thiazol-2-yl)benzenesulfonamide], for which the IC50 amounted to 35.2 nM.

With `CN(C1CNC1)[C@H]1CCCC[C@@H]1Nc1cc(F)c(S(=O)(=O)Nc2nccs2)cc1C1CC1` [Example 57, 4-(((1S,2S)-2-(azetidin-3-yl(methyl)amino)cyclohexyl)amino)-5-cyclopropyl-2-fluoro-N-(thiazol-2-yl)benzenesulfonamide dihydrochloride], the IC50 turned out to be 2.42 nM.

As for `CN[C@H]1CCCC[C@@H]1Nc1cc(F)c(S(=O)(=O)Nc2nccs2)cc1Br` [Example 50, 5-bromo-2-fluoro-4-(((1S,2S)-2-(methylamino)cyclohexyl)amino)-N-(thiazol-2-yl)benzenesulfonamide formate], the IC50 worked out at 58.4 nM.

As to `CN[C@H]1CCCC[C@@H]1Nc1cc(F)c(S(=O)(=O)Nc2nccs2)cc1C1CC1` [Example 51, 5-cyclopropyl-2-fluoro-4-(((1S,2S)-2-(methylamino)cyclohexyl)amino)-N-(thiazol-2-yl)benzenesulfonamide formate], the IC50 turned out to be 75.6 nM.

As for `CN(C)[C@@H]1CC[C@@H](C(F)(F)F)C[C@H]1Nc1cc(F)c(S(=O)(=O)Nc2nccs2)cc1Cl` [Example 83, 5-chloro-4-(((1R,2R,5R)-2-(dimethylamino)-5-(trifluoromethyl)cyclohexyl)amino)-2-fluoro-N-(thiazol-2-yl)benzenesulfonamide], the IC50 came out at 379 nM.

For `CC(O)CN(C)[C@H]1CCCC[C@@H]1Nc1cc(F)c(S(=O)(=O)Nc2cccc(F)n2)cc1Cl` (stereo partly drawn) [Example 86, 5-chloro-2-fluoro-N-(6-fluoropyridin-2-yl)-4-(((1S,2S)-2-((2-hydroxypropyl)(methyl)amino)cyclohexyl)amino)benzenesulfonamide], the IC50 came to 38.1 nM.

For the compound `O=S(=O)(Nc1cccc(F)n1)c1cc(Cl)c(N[C@H]2CCCC[C@@H]2N2CCCC2)cc1F` [Example 99, 5-chloro-2-fluoro-N-(6-fluoropyridin-2-yl)-4-(((1S,2S)-2-(pyrrolidin-1-yl)cyclohexyl)amino)benzenesulfonamide], the IC50 amounted to 65.5 nM.

Take `O=S(=O)(Nc1nccs1)c1cc(Cl)c(N[C@H]2CCCC[C@@H]2N2CCOCC2)cc1F` [Example 101, 5-chloro-2-fluoro-4-(((1S,2S)-2-morpholinocyclohexyl)amino)-N-(thiazol-2-yl)benzenesulfonamide]: the IC50 is 25.5 nM.

Take `O=S(=O)(Nc1nccs1)c1cc(Cl)c(N[C@H]2CCCC[C@@H]2N2CCCCC2)cc1F` [Example 70, 5-chloro-2-fluoro-4-(((1S,2S)-2-(piperidin-1-yl)cyclohexyl)amino)-N-(thiazol-2-yl)benzenesulfonamide formate]: the IC50 worked out at 3.46 nM.

For the compound `CCN[C@H]1CCCC[C@@H]1Nc1cc(F)c(S(=O)(=O)Nc2nccs2)cc1C1CC1` [Example 64, 5-cyclopropyl-4-(((1S,2S)-2-(ethylamino)cyclohexyl)amino)-2-fluoro-N-(thiazol-2-yl)benzenesulfonamide formate], the IC50 was 11.6 nM.

For the compound `CN(C1CNC1)[C@H]1CCCC[C@@H]1Oc1cc(F)c(S(=O)(=O)Nc2nccs2)cc1C1CC1` [Example 90, 4-(((1S,2S)-2-(azetidin-3-yl(methyl)amino)cyclohexyl)oxy)-5-cyclopropyl-2-fluoro-N-(thiazol-2-yl)benzenesulfonamide formate], the IC50 was determined as 2.64 nM.
